Data taken from patent US20220226425A1, “METHOD OF TREATING MELANOCORTIN-4 RECEPTOR PATHWAY-ASSOCIATED DISORDERS” (RHYTHM PHARMACEUTICALS, INC., priority 2015, published 2022).
Where a SMILES comes first, the peptide text is derived from it. Bridges are numbered along the chain shown (N, C = ends). [ ]: non-standard residue; d: D form. Pen = CC(C)(S)[C@H](N)C(=O)O; hCys = N[C@@H](CCS)C(=O)O

What was measured:
Test in all cases: cAMP accumulation via β-galactosidase (β-Gal) reporter system (cAMP Hunter GPCR assay)
Type in all cases: cell-based
MC-1R = MC-1R (Homo sapiens, UniProt Q01726); settings: ratio of EC-50 values, MC-1R versus MC-4R
Chain of MC-1R (Q01726 whole entry): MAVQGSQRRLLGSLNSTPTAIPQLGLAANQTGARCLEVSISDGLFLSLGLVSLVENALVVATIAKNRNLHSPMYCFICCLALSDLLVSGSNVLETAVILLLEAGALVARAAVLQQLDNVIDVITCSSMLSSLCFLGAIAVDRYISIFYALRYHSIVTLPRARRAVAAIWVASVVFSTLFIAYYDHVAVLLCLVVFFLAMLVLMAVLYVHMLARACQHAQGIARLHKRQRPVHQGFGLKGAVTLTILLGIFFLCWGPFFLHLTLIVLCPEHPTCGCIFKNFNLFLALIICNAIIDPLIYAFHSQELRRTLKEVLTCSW
From the text: (§1) cAMP Accumulation Measurement via a β-Galactosidase (β-Gal) Reporter System
(§2) A chemiluminescence readout system that uses an enzyme fragment complementation (EFC) system with β-galactosidase (β-Gal) as the functional reporter system was used. This assay system for various melanocortin receptor systems is commercially available (cAMP Hunter GPCR assay system, Discoverx Corp, Fremont, Calif.). This assay utilizes the β-Gal enzyme that is split into two complementary portions; EA for Enzyme Acceptor and ED for Enzyme Donor. In the assay, the ED portion fused to cAMP is made to compete with cAMP generated by cells for binding to a cAMP-specific antibody. The EA is then added to form active β-Gal with any unbound ED-cAMP. […] Briefly, 10000 cells per well are plated overnight and each well (cells incubated with 10 μl assay buffer) is then incubated with 4X serial concentration of the test compound in the cell assay buffer (5 μL) and cAMP antibody reagent (5 μL) for 30 min at 37° C. The cell lysis buffer (20 μL) containing ED-cAMP coupled enzyme fragment and the reporter substrate (Emerald II-Galacton Star, 5:1) is then added and incubated for 60 min at room temperature. Next, 20 μL of EA β-Gal fragment reagent is added. After further incubation for 120 min at room temperature, the chemiluminescence is measured by a plate reader (Envision).

MC-3R = MC-3R (Homo sapiens, UniProt P41968); settings: for EC50: cAMP agonist readout, MC-3R, read-out: EC-50 (nM) MC-3R; for Selectivity Ratios MC4R/MC3R: ratio of EC-50 values, MC-3R versus MC-4R
Chain of MC-3R (P41968 whole entry): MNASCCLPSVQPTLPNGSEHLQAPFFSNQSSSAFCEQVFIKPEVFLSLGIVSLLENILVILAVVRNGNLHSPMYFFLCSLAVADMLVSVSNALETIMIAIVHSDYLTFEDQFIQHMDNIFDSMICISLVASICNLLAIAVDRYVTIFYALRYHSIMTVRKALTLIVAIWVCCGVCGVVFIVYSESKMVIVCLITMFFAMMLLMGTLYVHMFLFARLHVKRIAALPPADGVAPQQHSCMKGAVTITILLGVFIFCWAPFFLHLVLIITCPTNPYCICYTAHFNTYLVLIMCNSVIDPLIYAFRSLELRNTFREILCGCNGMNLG
From the text: as §1, §2

MC-5R = MC-5R (Homo sapiens, UniProt P33032); settings: for Selectivity Ratios MC4R/MC5R: ratio of EC-50 values, MC-5R versus MC-4R
Chain of MC-5R (P33032 whole entry): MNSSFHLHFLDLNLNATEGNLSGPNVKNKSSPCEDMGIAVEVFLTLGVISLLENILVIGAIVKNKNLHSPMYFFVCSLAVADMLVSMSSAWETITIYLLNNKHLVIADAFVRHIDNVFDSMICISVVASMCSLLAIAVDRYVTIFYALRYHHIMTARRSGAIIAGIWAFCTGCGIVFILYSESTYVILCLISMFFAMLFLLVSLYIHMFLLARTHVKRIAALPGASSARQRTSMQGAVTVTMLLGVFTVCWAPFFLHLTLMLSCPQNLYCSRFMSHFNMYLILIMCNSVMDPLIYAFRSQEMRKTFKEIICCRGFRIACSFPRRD
From the text: as §1
A chemiluminescence readout system that uses an enzyme fragment complementation (EFC) system with β-galactosidase (β-Gal) as the functional reporter system was used. This assay system for various melanocortin receptor systems is commercially available (cAMP Hunter GPCR assay system, Discoverx Corp, Fremont, Calif.). This assay utilizes the β-Gal enzyme that is split into two complementary portions; EA for Enzyme Acceptor and ED for Enzyme Donor. In the assay, the ED portion fused to cAMP is made to compete with cAMP generated by cells for binding to a cAMP-specific antibody. The EA is then added to form active β-Gal with any unbound ED-cAMP. This active enzyme then converts a chemiluminescent substrate to generate an output signal that is recorded on a standard microplate reader. Briefly, 10000 cells per well are plated overnight and each well (cells incubated with 10 μl assay buffer) is then incubated with 4X serial concentration of the test compound in the cell assay buffer (5 μL) and cAMP antibody reagent (5 μL) for 30 min at 37° C. The cell lysis buffer (20 μL) containing ED-cAMP coupled enzyme fragment and the reporter substrate (Emerald II-Galacton Star, 5:1) is then added and incubated for 60 min at room temperature. Next, 20 μL of EA β-Gal fragment reagent is added. After further incubation for 120 min at room temperature, the chemiluminescence is measured by a plate reader (Envision).

Selectivity Ratios MC4R/MC1R (MC-1R) | EC50 (MC-3R) | Selectivity Ratios MC4R/MC3R (MC-3R) | Selectivity Ratios MC4R/MC5R (MC-5R) | Structure (SMILES) | EC50 (MC-5R; cAMP agonist readout, MC-5R, read-out: EC-50 (nM) MC-5R)
146.75 | > 3000 nM | >1872.97 | 459.17 | CC(=O)N[C@@H](CCCNC(=N)N)C(=O)N[C@H]1CCSSC(C)(C)[C@@H](C(N)=O)NC(=O)[C@H](Cc2c[nH]c3ccccc23)NC(=O)[C@H](CCCNC(=N)N)NC(=O)[C@@H](Cc2ccccc2)NC(=O)[C@H](CC(N)=O)NC1=O [Compound 001554C, Ac-Arg-(hCys-Asn-D-Phe-Arg-Trp-Pen)-NH2] (Ac-R[hCys]N[dF]RW[Pen]-NH2; disulfide 2-7) | –
244.35 | – | 2.68 | 639.81 | CC(=O)N[C@@H](CCCNC(=N)N)C(=O)N[C@H]1CCSSC(C)(C)[C@@H](C(N)=O)NC(=O)[C@H](Cc2c[nH]c3ccccc23)NC(=O)[C@H](CCCNC(=N)N)NC(=O)[C@@H](Cc2ccccc2)NC(=O)[C@H](CCC(N)=O)NC1=O [Compound 001555C, Ac-Arg-(hCys-Gln-D-Phe-Arg-Trp-Pen)-NH2] (Ac-R[hCys]Q[dF]RW[Pen]-NH2; disulfide 2-7) | –
123.06 | > 3000 nM | >1615.55 | 916.48 | CC(=O)N[C@@H](CCCNC(=N)N)C(=O)N[C@H]1CCSSC(C)(C)[C@@H](C(N)=O)NC(=O)[C@H](Cc2c[nH]c3ccccc23)NC(=O)[C@H](CCCNC(=N)N)NC(=O)[C@@H](Cc2ccccc2)NC(=O)[C@H](CO)NC1=O [Compound 001556C, Ac-Arg-(hCys-Ser-D-Phe-Arg-Trp-Pen)-NH2] (Ac-R[hCys]S[dF]RW[Pen]-NH2; disulfide 2-7) | –
465.77 | > 3000 nM | >2705.95 | 1846.64 | CC(=O)N[C@@H](CCCNC(=N)N)C(=O)N[C@H]1CCSSC(C)(C)[C@@H](C(N)=O)NC(=O)[C@H](Cc2c[nH]c3ccccc23)NC(=O)[C@H](CCCNC(=N)N)NC(=O)[C@@H](Cc2ccccc2)NC(=O)[C@H]([C@@H](C)O)NC1=O [Compound 001574C, Ac-Arg-(hCys-Thr-D-Phe-Arg-Trp-Pen)-NH2] (Ac-R[hCys]T[dF]RW[Pen]-NH2; disulfide 2-7) | –
35.57 | – | 1.75 | 101.41 | CC(=O)N[C@@H](CCCNC(=N)N)C(=O)N[C@H]1CCC(=O)NC[C@@H](C(N)=O)NC(=O)[C@H](Cc2c[nH]c3ccccc23)NC(=O)[C@H](CCCNC(=N)N)NC(=O)[C@@H](Cc2ccccc2)NC(=O)[C@H](CCC(N)=O)NC1=O [Compound 001576C, Ac-Arg-(Glu-Gln-D-Phe-Arg-Trp-Dpr)-NH2] | –
– | – | – | – | CC(=O)N[C@@H](CCCNC(=N)N)C(=O)N[C@H]1CSSC[C@@H](C(N)=O)NC(=O)[C@H](Cc2c[nH]c3ccccc23)NC(=O)[C@H](CCCNC(=N)N)NC(=O)[C@@H](Cc2ccccc2)NC(=O)[C@H](Cc2c[nH]cn2)NC(=O)[C@@H](C)NC1=O [RM-493, reference compound] | 1680 nM
